According to the supplement of paper PMC4862054:

Columns and labels:
Conditions in all cases: incubation time: 72 h
BT-474 [1] = experiment: normalised response (% of control), CellTox Green; higher = less cell death (100 = DMSO, 0 = benzethonium chloride kill control)
In short: (§1)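 A 20 µl suspension of breast cancer cells was seeded into each well of 384-well plates containing compound at 5 concentrations in 10-fold steps over a compound-specific 10,000-fold range. After 72 h incubation, CellTox Green fluorescence (485/520 nm) was read first, and CellTiter-Glo luminescence was read after 10 min at room temperature. Each plate was normalised against 0.1 % DMSO (100) and a positive kill control (0), and each value is the normalised signal at one concentration.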

BT-549 [2] = experiment: as above
In short: as §1

CAL-120 [3] = experiment: as above
In short: as §1

CAL-148 [4] = experiment: as above
In short: as §1

CAL-51 [5] = experiment: as above
In short: as §1

CAL-85-1 [6] = experiment: as above
In short: as §1

DU-4475 [7] = experiment: as above
In short: as §1

HCC1143 [8] = experiment: as above
In short: as §1

HCC1599 [9] = experiment: as above
In short: as §1

HCC1937 [10] = experiment: as above
In short: as §1

HDQ-P1 [11] = experiment: as above
In short: as §1

Hs578T [12] = experiment: as above
In short: as §1

MDA-MB-231 [13] = experiment: as above
In short: as §1

MDA-MB-436 [14] = experiment: as above
In short: as §1

MDA-MB-453 [15] = experiment: as above
In short: as §1

MDA-MB-468 [16] = experiment: as above
In short: as §1

MFM-223 [17] = experiment: as above
In short: as §1

BT-474 [18] = experiment: normalised response (% of control), CellTiter-Glo; higher = more viable cells (100 = DMSO, 0 = benzethonium chloride kill control)
Procedure: (§2)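 DSRT, 72 h incubation, CellTox Green / CellTiter-Glo readout. Signal is normalised to DMSO and benzethonium chloride controls. Value is the normalised response at dose 3.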

BT-549 [19] = experiment: as above
Procedure: as §2

CAL-120 [20] = experiment: as above
Procedure: as §2

CAL-148 [21] = experiment: as above
Procedure: as §2

CAL-51 [22] = experiment: as above
Procedure: as §2

CAL-85-1 [23] = experiment: as above
Procedure: as §2

DU-4475 [24] = experiment: as above
Procedure: as §2

HCC1143 [25] = experiment: as above
Procedure: as §2

HCC1599 [26] = experiment: as above
Procedure: as §2

HCC1937 [27] = experiment: as above
Procedure: as §2

HDQ-P1 [28] = experiment: as above
Procedure: as §2

Hs578T [29] = experiment: as above
Procedure: as §2

MCF-10A [30] = experiment: as above
Procedure: as §2

MDA-MB-231 [31] = experiment: as above
Procedure: as §2

MDA-MB-436 [32] = experiment: as above
Procedure: as §2

MDA-MB-453 [33] = experiment: as above
Procedure: as §2

MDA-MB-468 [34] = experiment: as above
Procedure: as §2

MFM-223 [35] = experiment: as above
Procedure: as §2

SK-BR-3 = experiment: as above
Procedure: as §2

MCF-10A [36] = experiment: normalised response (% of control), CellTox Green; higher = less cell death (100 = DMSO, 0 = benzethonium chloride kill control)
In short: as §1

Structure (SMILES) | normalised response (BT-474 [1]) | normalised response (BT-549 [2]) | normalised response (CAL-120 [3]) | normalised response (CAL-148 [4]) | normalised response (CAL-51 [5]) | normalised response (CAL-85-1 [6]) | normalised response (DU-4475 [7]) | normalised response (HCC1143 [8]) | normalised response (HCC1599 [9]) | normalised response (HCC1937 [10]) | normalised response (HDQ-P1 [11]) | normalised response (Hs578T [12]) | normalised response (MDA-MB-231 [13]) | normalised response (MDA-MB-436 [14]) | normalised response (MDA-MB-453 [15]) | normalised response (MDA-MB-468 [16]) | normalised response (MFM-223 [17]) | normalised response (BT-474 [18]) | normalised response (BT-549 [19]) | normalised response (CAL-120 [20]) | normalised response (CAL-148 [21]) | normalised response (CAL-51 [22]) | normalised response (CAL-85-1 [23]) | normalised response (DU-4475 [24]) | normalised response (HCC1143 [25]) | normalised response (HCC1599 [26]) | normalised response (HCC1937 [27]) | normalised response (HDQ-P1 [28]) | normalised response (Hs578T [29]) | normalised response (MCF-10A [30]) | normalised response (MDA-MB-231 [31]) | normalised response (MDA-MB-436 [32]) | normalised response (MDA-MB-453 [33]) | normalised response (MDA-MB-468 [34]) | normalised response (MFM-223 [35]) | normalised response (SK-BR-3) | normalised response (MCF-10A [36])
Cc1cc(Nc2nc(N[C@@H](C)c3ncc(F)cn3)ncc2Cl)[nH]n1 [AZD1480] (10 nM) | 98.2% | 65.3% | 95.6% | 66.3% | 111% | 108% | 96.6% | 106% | 99.4% | 92.2% | 97.8% | 109% | 95.6% | 73.2% | 98.8% | 136% | 96.4% | 99.9% | 102% | 98.4% | 93.5% | 114% | 103% | 93.9% | 103% | 107% | 98.9% | 97.1% | 92.2% | 92.3% | 96.1% | 106% | 88.9% | 104% | 96% | 97% | –
CC1(COc2ccc3c(c2)ncn3-c2ccc3cccc(N4CCC(N)CC4)c3n2)COC1 [Crenolanib] (100 nM) | 103% | 89.1% | 97.2% | 82.2% | 90.2% | 104% | 103% | – | 99.3% | 80.2% | 105% | 107% | 120% | – | 108% | 99.6% | 94.3% | 108% | 103% | 97.9% | 107% | 77.8% | 112% | 104% | 109% | 110% | 102% | 105% | 103% | 110% | 113% | 103% | 112% | 107% | 104% | 114% | 95.4%
Cn1cc(C2=C(c3cn(C4CCN(Cc5ccccn5)CC4)c4ccccc34)C(=O)NC2=O)c2ccccc21 [Enzastaurin] (100 nM) | 101% | 95.4% | 104% | 95% | 104% | 99.2% | 104% | – | 115% | 102% | 114% | 111% | 102% | 86% | 102% | 56.9% | 107% | 103% | 98.3% | 99.1% | 106% | 65% | 107% | 99.4% | 103% | 90.6% | 101% | 94% | 98.2% | 101% | 103% | 102% | 105% | 96.9% | 106% | 104% | 104%
Nc1ccn([C@@H]2O[C@H](CO)[C@@H](O)C2(F)F)c(=O)n1 [Gemcitabine] (10 nM) | 97.1% | 92.5% | 99.7% | 36.9% | 84.7% | 85% | 101% | 102% | 100% | 111% | – | 102% | 97.9% | 97.1% | 105% | 48.3% | 95.2% | 89.3% | 61.3% | 94.9% | 77.9% | 82% | 85.6% | 96.8% | 68.3% | 89.5% | 90.8% | 102% | 99.3% | 102% | 85.3% | 64.2% | 139% | 52.2% | 100% | 79.6% | 103%
C=CCn1c(=O)c2cnc(Nc3ccc(N4CCN(C)CC4)cc3)nc2n1-c1cccc(C(C)(C)O)n1 [MK1775] (100 nM) | 95.4% | 105% | 97.8% | 73.4% | 82.8% | 77.2% | 94.9% | 98.6% | 90% | – | 98.5% | 66.1% | 70.8% | 63.2% | 96.5% | 76.1% | 97.1% | 87.1% | 91.1% | 79% | 73.4% | 94.7% | 90.3% | 93.4% | 89.2% | 81.2% | 90.7% | 74.6% | 87.7% | 73.3% | 81.5% | 69.4% | 67.6% | 89.2% | 82.4% | 79% | 84.2%
CO[C@@H]1[C@H](N(C)C(=O)c2ccccc2)C[C@H]2O[C@]1(C)n1c3ccccc3c3c4c(c5c6ccccc6n2c5c31)C(=O)NC4 [Midostaurin] (100 nM) | 96.4% | 88.8% | 74.9% | 97.8% | 74.1% | 95.8% | 94.6% | 88.6% | 94.5% | – | 103% | 67% | 91.2% | 93.9% | 102% | 137% | 103% | 85.3% | 93.4% | 88.5% | 114% | 89.7% | 99% | 96.9% | 95.3% | 99.6% | 85.5% | 95.9% | 83.3% | 68.7% | 85.8% | 102% | 94.3% | 92.4% | 98.8% | 98.4% | 108%
CCNC(=O)c1noc(-c2cc(C(C)C)c(O)cc2O)c1-c1ccc(CN2CCOCC2)cc1 [NVP-AUY922] (10 nM) | 95.4% | 81.9% | 93% | 107% | 118% | 73.1% | 98.7% | 119% | 112% | – | 104% | 105% | – | 70.9% | 101% | 107% | 106% | 116% | 73.2% | 103% | 114% | 99.3% | 107% | 101% | 107% | 111% | 95.7% | 77.1% | 104% | 95% | 110% | 56.4% | 101% | 32.4% | 70.4% | 55.8% | 65%
O=[N+]([O-])c1ccc2c(c1)S(=O)(=O)C=C2 [Stattic] (500 nM) | 101% | 102% | 99.8% | 102% | 108% | 98.8% | 107% | 81.2% | 95.4% | – | 104% | 89.2% | 107% | 95.3% | 103% | 133% | 96.9% | 94.5% | 85.3% | 98.2% | 98.3% | 99% | 99.5% | 102% | 104% | 103% | 94.3% | 100% | 96.5% | 106% | 90.8% | 100% | 85.2% | 45.6% | 96.8% | 106% | 106%
O=C(CCCCCCC(=O)Nc1ccccc1)NO [Vorinostat] (100 nM) | 71.5% | 96.8% | 90.8% | 102% | 86.3% | 94.8% | 97.7% | 109% | 95.5% | 102% | 102% | 108% | 92.3% | 74.1% | 102% | – | 99.6% | 96.2% | 100% | 96.1% | 108% | 69.6% | 105% | 99.6% | 98.8% | 113% | 97.7% | 97.1% | 98.2% | 101% | 93.6% | 97% | 101% | 110% | 97.8% | 94.5% | 91.4%
